From patent US20250041261A1, “METHODS AND COMPOSITIONS FOR TREATING MELANOMA” (INSTITUT NATIONAL DE LA SANTÉ ET DE LA RECHERCHE MÉDICALE, priority 2021, published 2025) come the findings set out here.

Entries after “also recorded” stand apart in the source; their conditions may differ.

Test [1] concerns Primary (MP46) or metastatic (OMM1, OMM2.5, OMM1.3) uveal melanoma cells. Description: PrestoBlue proliferation/survival assay (FIG. 7). Type of test: cell-based, human. As to conditions: MP46, OMM1, OMM2.5, OMM1.3, increasing concentrations, 72 h. Here is the method:
FIG. 7: Primary (MP46) or metastatic (OMM1, OMM2.5, OMM1.3) uveal melanoma cells were seeded at 3000 cells/well in a 96 well plate and treated with increasing concentrations of salinomycin, AM23 or AM5. After 72 h of incubation, cells were treated with PrestoBlue reagent according to manufacture instructions. The absorbance per well was measured with a microplate reader. The data were then analyzed using Prism8. Histograms bars represent the average of three replicates #standard error of the mean (s.e.m).

Test [2] has as its system primary uveal melanoma cells (MP46 and MP65) or metastatic uveal melanoma cells (OMM1.3) expressing or not BAP1. Description: Colony formation assay. Type of test: cell-based, human. To be noted: MP46, MP65, OMM1.3, whether BAP1 is expressed or not; 7 days. From the text:
FIG. 6: Colony formation assay of primary uveal melanoma cells (MP46 and MP65) or metastatic uveal melanoma cells (OMM1.3) expressing or not BAP1 after seeding them for 7 days upon treatment with the drugs indicated on the figure. Representative wells are shown.

For test [3], the system named is PLX-resistant metastatic cutaneous melanoma cells. Description: Cell count of PLX-sensitive and resistant cutaneous melanoma cells. In kind it is cell-based. The arrangement: dose or concentration left out as unconfirmed. To be noted: increasing concentrations of AM23 or AM5 in presence or absence of PLX; cells counted after 72 h; FIG. 1. Here is the method: PLX-sensitve and resistant cutaneous melanoma cells, seeded at 150,000 cells/well in 6-well dishes, were treated with increasing concentrations of AM23 or AM5 in presence or absence of PLX ([…]). Cells were manually counted after 72 h.
PLX-sensitve and resistant cutaneous melanoma cells were seeded at 150,000 cells/well in 6-well dishes. They were treated with increasing concentrations of AM23 or AM5 in presence or absence of PLX ([…]). Cells were manually counted after 72 h.

Another test concerns ferritin. Description: Western blot of ferritin expression. In kind it is cell-based, human. To be noted: OMM1.3 and MP46 cells; AM23 100 nM or salinomycin 0.5 mM for 48 h; immunoblot. Here is the method: FIG. 5: Effect of AM23 or salinomycin on ferritin expression. OMM1.3 and MP46 human uveal melanoma cells were left untreated (UNT) or were treated with DMSO (Ctl), AM23 (100 nM) or salinomycin (0.5 mM) for 48 h. Cell lysates were analysed by immunoblot with antibodies to ferritin. Actin was used as a loading control.
Briefly, uveal melanoma cell lysates (50 μg) were separated using SDS-PAGE, transferred onto a PVDF membrane and subsequently exposed to the appropriate antibodies, anti-ferritin (#sc376594, 1/1,000) and anti-actin (sc47778, 1/1,000) from Santa Cruz Biotechnology. The proteins were visualized using the ECL system (Amersham). The western blots shown are representative of at least 3 independent experiments.
A general note: A western blot detects proteins with antibodies after separation by electrophoresis.

In test [4] the test system is Uveal melanoma cells (OMM1.3, MM28, MP65 and MP46). Description: Spheroid (melanosphere) formation, 3D-cultures. To be noted: AM23 100 nM (or 1 mM); low attachment plates; pictures after 8 days. Type of test: cell-based, human. Here is the method: Uveal melanoma cells (OMM1.3, MM28, MP65 and MP46) were seeded at 5000 cells/well in 6-well low attachment plates and were left untreated (0) or were treated with DMSO (Ctl) or AM23 (100 nM or 1 mM) 24 hours later. Representative pictures taken after 8 days are shown.
Uveal melanoma cells were seeded at a density of 5,000 cells per well and grown in MEF medium (R&D systems, #AR005) supplemented with 4 ng/ml FGF2 in low adherence plates. The following day, wells were supplemented with ironomycin (100 nM or 1 mM). Photographs were taken using a phase contrast microscope (EVOS XL Core Imaging System).

Test [5] concerns Uveal melanoma cells (OMM1.3, MM28, MP46, MP65). Description: Cell survival assay (PrestoBlue), 2D-cultures. Type of test: cell-based, human. As to conditions: increasing concentrations, PrestoBlue after 96 h / 72 h. Here is the method: Uveal melanoma cells (OMM1.3, MM28, MP46, MP65) were seeded at 5,000 cells/well in a 96-well plate and treated with increasing concentrations of AM23, salinomycin or staurosporine as positive control as indicated on the figure. The condition “milieu RPMI” represents medium without cells. After 96 h of incubation, cells were incubated with PrestoBlue reagent according to manufacture instructions. The absorbance per well was measured with a microplate reader. The data were then analyzed using excel.
Uveal melanoma cells were seeded at 5,000 cells/well in a 96-well plate and treated with salinomycin or ironomycin as well as a positive control (staurosporin, 500 nM). After 72 h of incubation, cells were treated with PrestoBlue reagent according to manufacture instructions (Thermofisher). The absorbance per well was measured with a microplate reader. The data were then analyzed using excel software.
Uveal melanoma cells are known to hardly enter into apoptosis in response to treatments. Thus, we investigated the effects of salinomycin (Sal) and its derivate called ironomycin (AM23) that have been shown, in different cancer cells, to trigger ferroptosis, a type of cell death based on accumulation of iron into lysosomes and subsequent lysosomal membrane permeabilization. We treated a panel of uveal melanoma cells, i.e the human metastatic OMM1.3 (BAP1+) and MM28 (BAP1+) cells, and the human primary MP46 (BAP1−) and MP65 (BAP1−) cells, with Sal or its derivate AM23 to determine if these drugs can represent potential therapeutic options.

The test system of test [6] is MP46 and OMM1.3 human uveal melanoma cells. Description: Fe (ii) detection in lysosomes with RhoNox-M fluorescent probe. To be noted: AM23 30 nM or 100 nM, salinomycin 0.5 mM, 48 h, then RhoNox-M 1 h, compared to control cells. In kind it is cell-based. Here is the method: A. MP46 and B. OMM1.3 human uveal melanoma cells were seeded at 5000 cells/well on a glass coverslip and were treated with DMSO (Ctl), AM23 (30 nM or 100 nM) or salinomycin (0.5 mM) for 48 h and then with RhoNox-M for 1 h for Fe 2+ detection. Representative confocal fluorescence microscopy images.
To assess whether AM23 triggers lysosomal iron accumulation, we evaluated whether endocytic vesicles contained Fe (ii) as previously reported. To this aim, the Fe (ii)-specific turn-on fluorescent probe RhoNox-M, which can detect the presence of Fe (ii) in lysosomes, was used. […] In response to the ensuing cytoplasmic depletion of iron, cells triggered in lysosomes the degradation of ferritin, which stores cellular iron, leading to further iron loading in this organelle.

On to `C#CCN[C@@H]1C=C[C@]2(O[C@H]([C@@H](CC)C(=O)[C@@H](C)[C@@H](O)[C@H](C)C3O[C@@H](C(CC)C(=O)O)CC[C@@H]3C)[C@@H](C)C[C@H]2C)O[C@@]12CC[C@@](C)([C@H]1CC[C@](O)(CC)[C@H](C)O1)O2` (stereo partly shown) [AM5], for which, in test [1], the “uveal melanoma cell proliferation/survival (FIG. 7)” value is “decreases uveal melanoma cell proliferation/survival, yet with a little bit lower efficacy than AM23”.
Take `C#CCN[C@@H]1C=C[C@]2(O[C@H]([C@@H](CC)C(=O)[C@@H](C)[C@@H](O)[C@H](C)[C@@H]3O[C@@H]([C@@H](CC)C(=O)O)CC[C@@H]3C)[C@@H](C)C[C@H]2C)O[C@@]12CC[C@@](C)([C@H]1CC[C@](O)(CC)[C@H](C)O1)O2` [AM23, (2R)-2-[(2R,5S,6R)-6-{(2S,3S,4S,6R)-6-[(2S,5S,7R,9S,10S,12R,15R)-2-[(2R,5R,6S)-5-Ethyl-5-hydroxy-6-methyltetrahydro-2H-pyran-2-yl]-2, 10,12-trimethyl-15-(2-propyn-1-ylamino)-1,6,8-trioxadispiro[4.1.5.3]pentadec-13-en-9-yl]-3-hydroxy-4-methyl-5-oxo-2-octanyl}-5-methyltetrahydro-2H-pyran-2-yl]butanoic acid]: the “ability of uveal melanoma cells to form colonies” value in test [2] is “strong reduction”. The “resensitization of PLX-resistant cells to PLX effects (cell count)” value in test [3] was “resensitizes PLX-resistant metastatic cutaneous melanoma cells to PLX effects”. The ferritin expression result in the test with ferritin was “strongly reduced”. In addition, in test [4], the “melanosphere formation / cell survival in 3D-cultures” value is given as “prevents melanosphere formation; also recorded: almost complete disappearance of melanospheres”. Besides, in test [5], the “proliferation/survival of uveal melanoma cells in 2D-cultures” value is listed as “induces uveal melanoma cell death; also recorded: reduced proliferation/survival”. The “Fe (ii) / iron accumulation in lysosomes (RhoNox-M fluorescence)” value in test [6] is listed as “induces Fe (ii) in lysosomes; also recorded: exhibited fluorescent RhoNox-M-positive vesicles”.
Turning to `CC[C@@H](C(=O)O)C1CC[C@H](C)[C@H]([C@@H](C)[C@H](O)[C@H](C)C(=O)[C@H](CC)[C@H]2OC3(C=C[C@@H](O)C4(CC[C@@](C)([C@H]5CC[C@](O)(CC)[C@H](C)O5)O4)O3)[C@H](C)C[C@@H]2C)O1` (stereo in doubt) [Salinomycin, (2R)-2-[(5S,6R)-6-[(1S,2S,3S,5R)-5-[(2S,5R,7S,9S,10S, 12R, 15R)-2-[(2R,5R,6S)-5-ethyl-5-hydroxy-6-methyl-2-tetrahydropyranyl]-15-hydroxy-2,10,12-trimethyl-1,6,8-trioxadispiro[4.1.57.35]pentadec-13-en-9-yl]-2-hydroxy-1,3-dimethyl-4-oxoheptyl]-5-methyl-2-tetrahydropyranyl]butanoic acid, reference compound], the “ability of uveal melanoma cells to form colonies” value in test [2] was “strong reduction”. Further, the ferritin expression entry in the test with ferritin is “strongly reduced”. For the same compound, the “proliferation/survival of uveal melanoma cells in 2D-cultures” value in test [5] was “induces uveal melanoma cell death”; in test [5] (listed as Sal), “reduced proliferation/survival”. Moreover, the “Fe (ii) / iron accumulation in lysosomes (RhoNox-M fluorescence)” value in test [6] is given as “induces Fe (ii) in lysosomes”; in test [6] (listed as Sal), “exhibited fluorescent RhoNox-M-positive vesicles”.
